Literature values as cited in US7169813B2, “4-oxo-fenretinide, administered alone and in combination with fenretinide, as preventive and therapeutic agent for cancer” (Fondazione IRCCS “Istituto Nazionale Dei Tumori”, priority 2004, dated 2007).

How the values were obtained:
[1] = tested on: different tumor cell lines; details: cited from earlier work
human ovarian carcinoma = details: mice bearing a human ovarian carcinoma, cited from earlier work

## COc1ccc(NC(=O)\C=C(C)/C=C/C=C(C)\C=C\C2=C(C)CCCC2(C)C)cc1 (stereo in doubt) [4-MPR, N-(4-methoxyphenyl)retinamide]
[1]
  inhibiting proliferation: ineffective
Human ovarian carcinoma
  antitumor effect: no antitumor effect
Human ovarian carcinoma; with 4-HPR
  effect on 4-HPR activity: did not increase 4-HPR activity
